Test results taken from patent publication US20200306254A1, “COMBINATION OF ERK1/2 INHIBITOR COMPOUND WITH GEMCITABINE OR WITH GEMCITABINE AND NAB-PACLITAXEL FOR USE IN TREATMENT OF PANCREATIC CANCER” (Eli Lilly and Company, priority 2016, published 2020).
Where two headings read alike, the source gives them in different places.

Tests used:
[1] = system: human pancreatic cancer cells MIA PaCa2 xenograft; test: Xenograft Tumor Model (MIA PaCa2); format: in vivo, female athymic nude mice; conditions: for Delta T/C % or Regression %: oral gavage, 14 days
Procedure: The purpose of this assay is to measure reduction in tumor volume in response to test compound administration. Expand human pancreatic cancer cells MIA PaCa2 (ATCC, # CRL1420) in culture, harvest and inject 5×10e^6 cells in 200 μL of 1:1 HBSS+matrigel solution subcutaneously on the rear right flank of female athymic nude mice (22-25 g, Harlan Laboratories). Measure tumor growth and body weight twice per week beginning the seventh day after the implantation. When tumor sizes reach 200-400 mm^3, randomize animals and group into groups of eight to ten animals. Prepare test compound in an appropriate vehicle (vehicle: […]/0.25% TWEEN® 80/0.05% Antifoam) and administer by oral gavage daily for 14 days. Tumor response is determined by tumor volume measurement performed twice a week during the course of treatment. Body weight is taken as a general measure of toxicity.
Regression % is calculated when the endpoint volume is below baseline. The formula is 100*(T−T0)/T0. Where T0 is the mean baseline tumor volume for the treated group. Grand mean of all groups from baseline (randomization) at day 20 used to compute % change of T/C.

[2] = system: KRAS mutant (G12V) Capan-2 pancreatic cancer xenograft; format: in vivo; conditions: for Delta T/C % or % Regression: Day 34, Compound A 50 mg/kg QD PO, gemcitabine 100 mg/kg once weekly IP; for Difference (Treatment 1 − Treatment 2), tumor growth: Treatment 1 = Vehicle QD x 28 PO, log10 tumor volume, Compound A 50 mpk QD x 28 PO, Gemcitabine 100 mpk Q7D x 4 IP; for inhibition of tumor growth: single agents vs vehicle control group, combination vs each single agent alone
Procedure: Human pancreatic cancer cell line Capan-2 (ATCC cat # HTB-80) are cultured in DMEM supplemented with 10% fetal bovine serum, sodium pyruvate, nonessential amino acids, L-glutamine, and penicillin-streptomycin (Invitrogen, Carlsbad, Calif.). All cultures are maintained in a humidified incubator at 37° C. under 5% CO2/95% air free off mycoplasma and pathogenic murine viruses. The cells are used for experiments at passages <7 after recovery from frozen stocks.
Female CB-17 SCID nude mice are ordered from Charles River Laboratories International, Inc. All animals are acclimated for one week before the use and are housed and maintained in specific pathogen-free conditions in accordance with the guidelines of the American Association for Laboratory Animal Care and all current regulations and standards of the U.S. Departments of Agriculture and of Health and Human Services and the NIH. The experiment protocol is approved by the Eli Lilly and Company Animal Care and Use Committee.
Logarithmically growing Capan-2 cells (5×10^6/200 μL, single-cell suspensions of over 95% viability in Hank's medium mixed with equal volume of Matrigel (Becton Dickinson & Co., San Jose, Calif.)) are subcutaneously injected into the flank of the mice. When the average tumor volume reaches about 200 to 300 mm^3 following tumor cell implantation, the animals are randomized into different groups (n=5). The animals are treated with vehicle control (1% HEC/0.25% TWEEN® 80/0.05% Antifoam, daily, orally), Compound A (50 mg/kg, QD, PO), gemcitabine (100 mg/kg, once weekly, intraperitoneal), and the combination for 4 weeks. Compound A was formulated in 1% HEC/0.25% TWEEN® 80/0.05% Anti foam and gemcitabine is formulated in phosphate buffered saline (lx). Tumor volume and body weight are measured twice weekly. Tumor volume is estimated by using the formula: v=l×w2×0.536 where l=larger of measured diameter and w=smaller of perpendicular diameter.
The statistical analysis of the tumor volume data begins with a data transformation to a log scale to equalize variance across time and treatment groups. The log volume data are analyzed with a two-way repeated measures analysis of variance by time and treatment using the MIXED procedures in SAS software (Version 9.3). The correlation model for the repeated measures is Spatial Power. Treated groups are compared to the control group at each time point. The MIXED procedure is also used separately for each treatment group to calculate adjusted means and standard errors at each time point. Both analyses account for the autocorrelation within each animal and the loss of data that occurs when animals with large tumors are removed from the study early. The adjusted means and standard errors (s.e.) are plotted for each treatment group versus time. Analysis for tumor volume is based on log10 and spatial power covariance structure. P value is based on the comparison between two specific groups.
First, the usual repeated measures model is fit to log volume versus group and time. Then contrast statements are used to test for an interaction effect at each time point using the 2 specific treatments that are combined. This is equivalent to the Bliss Independence method and assumes that tumor volumes can, in theory, reach zero, i.e., complete regression. The expected additive response (EAR) for the combination is calculated on the tumor volume scale as: response (EAR) EAR volume=V1*V2/V0, where V0, V1, and V2 are the estimated mean tumor volumes for the vehicle control, treatment 1 alone, and treatment 2 alone, respectively. If the interaction test is significant, the combination effect is declared statistically more than additive or less than additive depending on the observed combination mean volume being less than or more than the EAR volume, respectively. Otherwise, the statistical conclusion is additive. In addition, a biologically relevant range of additivity can be defined as X % above and below the EAR volume. Typically, X would be 25 to 40%. […]

[3] = system: ERK substrate (RSK) phosphorylation in HCT116 colorectal cancer cell line; test: ERK1/2 Cell Mechanistic Assay (pRSK1 Alphascreen Assay); format: cell-based; conditions: Homo sapiens, HCT-116, HCT116 cells, 2 h, n=8, read-out: IC50, ERK substrate (RSK) phosphorylation in tumor cells
Procedure: The purpose of this assay is to measure the ability of a compound to inhibit ERK signaling in cancer cells in vitro. Carry out the pRSK1 Alphascreen assay using the HCT116 colorectal cancer cell line (ATCC, # CCL-247). Routinely culture HCT116 cells in Dulbecco's Modified Eagle's Medium (DMEM) (Hyclone, # SH30022) growth medium containing 5%0/Fetal Bovine Serum (FBS) (Gibco, #16000-044) in T-150 flasks and incubate in a 5% CO2 incubator at 37° C. Harvest cells when they become confluent and freeze in freezing medium at 1×10e^7 cells/mL as “assay ready frozen cells” and store in liquid nitrogen. To run the assay, plate 40,000 HCT116 cells/well in a 96-well tissue culture plate and incubate at 37° C. in a 5% CO2 incubator overnight. Test compounds at 10 concentrations starting at a 20 μM top concentration and utilize a 1:3 dilution scheme (20 μM to 0.001 μM) with a final DMSO concentration of 0.5% (v/v). Add compounds in 20 μL serum free growth medium and incubate at 37° C. for two hours. Remove growth medium and add 50 μL of 1× lysis buffer [Cell Signaling Technology, #9803] containing 1× holt protease and […] inhibitor cocktail [Thermo, #78441] to each well and incubate at room temperature for 10 minutes on a shaker. […] Measure the fluorescence intensity in each well by reading the plates in ENVISION® (PerkinElmer) plate reader. […]

Row | SMILES | Delta T/C % or Regression % ([1]; MIA PaCa2 xenograft, 25 mg/kg QD) [%] | Delta T/C % or Regression % ([1]; MIA PaCa2 xenograft, 50 mg/kg QD) [%] | Delta T/C % or Regression % ([1]; MIA PaCa2 xenograft, 100 mg/kg QD) [%] | Delta T/C % or Regression % ([1]; MIA PaCa-2 xenograft, 12.5 mg/kg QD) [%] | anti-tumor activity ([1]; human pancreatic cancer xenograft model (MIA PaCa2)) | Delta T/C % or % Regression [2] [%] | Difference (Treatment 1 − Treatment 2), tumor growth [2] | inhibition of tumor growth [2] | IC50 [3] [nM] | Delta T/C % or % Regression ([2]; listed as gemcitabine) [%]
1 | Cn1nccc1Nc1nccc(-c2cc3c(s2)C(C)(C)N(CCN2CCOCC2)C3=O)n1 [Compound A, 6,6-Dimethyl-2-{2-[(1-methyl-1H-pyrazol-5-yl)amino]pyrimidin-4-yl}-5-[2-(morpholin-4-yl)ethyl]-5,6-dihydro-4H-thieno[2,3-c]pyrrol-4-one] | 2 | −22 | −66 | 32 | significant anti-tumor activity | 40 | 0.397 | partial inhibition of tumor growth | 429 | 
2 | Nc1ccn([C@@H]2O[C@H](CO)[C@@H](O)C2(F)F)c(=O)n1 [Gemcitabine, gemcitabine] |  |  |  |  |  | 24 | 0.633 | partial inhibition of tumor growth |  | 20
